≈ marks a conversion by molar mass, not a printed value. Read-outs that look alike come from different tables or passages of the source.
What was measured:
[1] = Solubility study in aqueous buffers and organic solvents; format: physicochemical
Method: The solubility of AD-EM compared to EM was evaluated in several different aqueous buffers (i.e., PBS, Water, Acetate pH 5.0) and polar solvents (i.e., methanol, ethyl acetate, acetone). The solubility study presented in Table 1 further verifies that modified AD-EM is more hydrophobic than EM due to the addition of the hydrophobic AD group. […] The increased hydrophobicity of AD-EM is desirable to enhance its ability to bind to tissue, thereby increasing its tissue residence time and therapeutic activity.
Small samples of both EM and AD-EM (1–3 mg samples for aqueous solvents (water, PBS (pH 7.4), and acetate buffer (pH 5.0)); 10 mg samples for methanol, ethyl acetate, and acetone) were placed in individual vials. Each solvent was gradually added to either the EM or AD-EM samples in 50–100 µL increments until the drug sample was completely dissolved and the solution was homogeneous. Three trials were completed for each drug in each solvent and the results are reported as an average of these three trials. The solubility limit of each drug was determined to be the minimum amount of volume of each solvent where the drug was completely soluble.

[2] = system: S. aureus; assay: Zone of inhibition antibacterial study with drug-loaded insoluble cyclodextrin polymer disks; format: cell-based, Staphylococcus aureus; conditions: approximately two weeks
Method: A zone of inhibition study against S. aureus was conducted for approximately two weeks using EM and AD-EM loaded into insoluble cyclodextrin polymer disks to evaluate whether the chemical modification altered the intrinsic antimicrobial activity of EM (Figure 4). […] It is possible that the slight decrease in antibacterial activity after 8 days in AD-EM (compared to EM) can be attributed to the presence of both species in the final AD-EM composition.
Synthesis of insoluble cyclodextrin polymer disks was carried out according to a previously published protocol by Thatiparti et al.. Briefly, 1 g cyclodextrin (CycloLab, Budapest, Hungary) was dissolved in 4 mL dimethylformamide (DMF) and stirred. The solution was cross-linked with hexamethylene diisocyanate (HDI; Sigma Aldrich, St. Louis, MO, USA) in a molar ratio of 1:0.16 (glucose residue: HDI). The solution was cured at 70 °C for 45 min and punched into 8 mm disks. Disks were washed to removed unreacted products over several days in 100% DMF, 50:50 DMF:water, and 100% water before use. […]
The antibacterial activity of EM and AD-EM loaded insoluble cyclodextrin polymer disks was evaluated against S. aureus (GFP labeled S. aureus kindly provided by Ed Greenfield, Case Western Reserve University, Cleveland, OH, USA) according to the protocol outlined by Thatiparti et al.. […]

[3] = system: S. aureus biofilms; assay: Bacterial biofilm penetration study (colonies remaining in mature biofilm); format: cell-based, Staphylococcus aureus; conditions: for % Control Colonies Remaining: 1.25 mg/mL, mature (72 h) biofilm, vs 90% PBS/10% DMSO control; for Original colonies in the biofilm eradicated: 1 h exposure; for Original colonies killed: 7 h exposure; for Additional killing compared to the 7 h time point: 24 h exposure
Method: The ability to penetrate through the biofilm is related to the number of bacteria remaining in the biofilm after exposure to a drug compared to the control condition (90% PBS/10% DMSO). The control condition was set-up in such a way that the biofilm coated cyclodextrin polymer was placed in a solution under the same conditions used to make the drug-containing solutions. The colonies remaining in the biofilms after 1, 7, and 24 h after being treated with AD-EM, EM, or the control solution are reported in Table 2, where the remaining colonies from drug-treated biofilms are compared to the number of colonies in a control solution. After only 1 h of exposure to the drug (AD-EM or EM), nearly 30% of the original colonies in the biofilm were eradicated, and after 7 h of drug (AD-EM or EM) exposure >85% of the original colonies were killed. […] We hypothesize that this could be due to presence of planktonic bacteria naturally resistant to antibiotic effect, as well as the development of drug-resistant bacteria that are unable to be fully eradicated even after extended periods of exposure time to the drug. […] High variability in the studies reflects both the inconsistent nature of the biofilm as well as difficulty recovering bacteria to make accurate counts.
5 mm insoluble cyclodextrin polymer disks were placed in 3 mL solutions of 2× Trypticase soy broth with 30 μL of freshly cultured GFP-labeled S. aureus. Solutions were incubated at 37 °C for 72 h to form a mature biofilm. Each condition was set-up in triplicate. Following incubation, polymer disks were removed from the bacterial culture, excess broth removed, and placed in a 1.25 mg/mL drug solution of either EM or AD-EM dissolved in PBS with 10% DMSO. As a control, biofilm coated disks were also placed in a solution of just PBS and 10% DMSO. Each solution was placed in a laboratory shaker at 37 °C for either 1, 7, or 24 h. After this time, disks were removed from the drug solution, dried off, and placed in 4 mL of sterile Trypticase soy broth and homogenized for 30 s with an Omni TH homogenizer. Then, 70 μL of each solution was spread in duplicate on Trypticase soy agar plates and incubated overnight. Bacterial colonies were then counted and averaged using ImageJ software. Bacterial eradication was calculated as the percentage of colonies remaining in drug treated samples after different time points compared to the control colonies at that time point.

[4] = Acidic stability / acidic conversion absorbance spectral scan; format: physicochemical; conditions: for Acidic conversion over several hours (absorbance pattern, words): pH 5.0 vs neutral vs acidic later neutralized, t = several hours
Method: The PBS solution was diluted to a concentration of 70 μM and concentrated sulfuric acid ([…]) was added to the solution in a volume equal to that of the total volume of the initial 70 µM solution to elicit a color change detectable with absorbance spectroscopy. Two separate solutions were initially created with the acetate buffer. One solution was diluted to 70 μM and allowed to sit for several hours at room temperature. The other acetate solution was diluted to a slightly higher concentration, sat for 1 h at room temperature, was neutralized with sodium hydroxide (0.1 N) (such that the concentration of the solution was 70 µM), and sat for several more hours at room temperature. Both acetate solutions were treated with equal volumes of sulfuric acid to elicit a color change.

[5] = Solubility in DMSO / DMSO-d6 observed during 1H NMR; format: physicochemical; conditions: DMSO / DMSO-d6, NMR sample
Method: ^1H NMR was used to confirm the presence of AD in the AD-EM (Figure S1). Both EM and AD-EM were dissolved in deuterated dimethyl sulfoxide (DMSO-d6) and spectra acquired. The spectra are in agreement with the reported literature spectra, thus we looked to see changes in the spectra following the conjugation reaction. The processed spectra of each species were compared to monitor structural differences between protons from EM and AD-EM. The AD-EM spectra confirms the presence of both AD and EM, as well as hydrazone formation, indicating successful reaction. In the NMR spectra of AD-EM, AD attachment is confirmed by the presence of two multiplet peaks at approximately 1.9 ppm and from 1.6–1.8 ppm, corresponding to protons from the fused cyclohexane rings of AD. In the spectra of the AD-EM, a singlet peak, corresponding to a hydrazone, appears at 9.0 ppm. […] However, peak placement is consistent between AD-EM and EM, indicating the presence of both species in the AD-EM conjugate.
EM (approximately 40 mg) and AD-EM (approximately 40 mg) were dissolved in 500 µL of DMSO-d6, and sonication was used to promote dissolution. Samples were analyzed on a 600 MHz Varian Nuclear Magnetic Resonance Spectrometer, using 128 scans and a 45 degree pulse angle. Spectra were analyzed using MesReNova software using the residual solvent peak from DMSO-d6 as the reference.

[6] = system: S. aureus biofilms; assay: Bacterial biofilm penetration study (colonies remaining in mature biofilm); format: cell-based, Staphylococcus aureus; conditions: 48 and 72 h exposure, data not shown
[7] = aqueous buffer, thermodynamic from solid, Acetate buffer, pH 5.0, n = 3, read-out: Relative solubility in acetate buffer
[8] = aqueous buffer, thermodynamic from solid, Phosphate Buffered Saline (PBS), pH 7.4, n = 3, read-out: Relative solubility in PBS
[9] = organic solvent or mixture, thermodynamic from solid, Acetone, n = 3, read-out: Relative solubility in acetone
[10] = organic solvent or mixture, thermodynamic from solid, Ethyl Acetate, n = 3, read-out: Relative solubility in ethyl acetate
[11] = organic solvent or mixture, thermodynamic from solid, Methanol, n = 3, read-out: Relative solubility in methanol
[12] = thermodynamic from solid, Water, n = 3, read-out: Relative solubility in water

SMILES	solubility [1, 7] [µg/mL]	solubility [1, 8] [µg/mL]	solubility [1, 9] [µg/mL]	solubility [1, 10] [µg/mL]	solubility [1, 11] [µg/mL]	solubility [1, 12] [µg/mL]	Zone of inhibition activity [2]	% Control Colonies Remaining ([3]; 1 h drug incubation)	Original colonies in the biofilm eradicated [3] [%]	% Control Colonies Remaining ([3]; 7 h drug incubation)	Original colonies killed [3] [%]	% Control Colonies Remaining ([3]; 24 h drug incubation)	Additional killing compared to the 7 h time point [3]	Acidic conversion over several hours (absorbance pattern, words) [4]	Solubility in DMSO [5]	other results
CC[C@H]1OC(=O)[C@H](C)[C@@H](OC2C[C@@](C)(OC)[C@@H](O)[C@H](C)O2)[C@H](C)[C@@H](OC2O[C@H](C)C[C@H](N(C)C)[C@H]2O)[C@](C)(O)C[C@@H](C)/C(=N\NC(=O)C23CC4CC(CC(C4)C2)C3)[C@H](C)[C@@H](O)[C@]1(C)O (stereo partly drawn) [AD-EM, adamantane-modified erythromycin]	1390 ± 40 (≈ 1.53 mM)	340 ± 10 (≈ 0.374 mM)	37500 (≈ 41.2 mM)	> 40000	7300 ± 200 (≈ 8.02 mM)	330 ± 30 (≈ 0.363 mM)	comparable activity	62.7% ± 22.1%	~30	14.8% ± 13.7%	> 85	11.7% ± 7.9%	~ 2%	no distinguishable differences	slightly insoluble	solubility ([1]; several polar solvents, comparable to EM, read-out: Solubility in several polar solvents): ~40000 µg/mL (≈ 43.9 mM); Acidic conversion over several days (absorbance signal, words) ([4]; pH 5.0 vs neutral, t = several days): lower absorbance signal than in neutral conditions
CC[C@H]1OC(=O)[C@H](C)[C@@H](O[C@H]2C[C@@](C)(OC)[C@@H](O)[C@H](C)O2)[C@H](C)[C@@H](O[C@@H]2O[C@H](C)C[C@H](N(C)C)[C@H]2O)[C@](C)(O)C[C@@H](C)C(=O)[C@H](C)[C@@H](O)[C@]1(C)O [EM, Erythromycin]	15000 (≈ 20.4 mM)	1600 ± 400 (≈ 2.18 mM)	> 40000	> 40000	> 40000	1500 ± 200 (≈ 2.04 mM)	comparable activity	71.6% ± 40.2%	~30	10.5% ± 6.8%	> 85	8.3% ± 6.6%	~ 2%	noticeable acidic conversion		Colonies remaining after extended exposure [6]: approximately the same number of colonies remained; Absorbance signal in acidic solution ([4]; acetate pH 5.0, several hours, after 27 N sulfuric acid, 35 μM final): 0.17; Absorbance signal, acidic solution later neutralized ([4]; acetate pH 5.0 then neutralized with NaOH, several hours): 0.22; Absorbance signal in neutral solution ([4]; neutral PBS, after 27 N sulfuric acid, 35 μM final): 0.22
NNC(=O)C12CC3CC(CC(C3)C1)C2 [AD, adamantane-1-carbohydrazide]															completely insoluble	

From publication PMC5485444 (Antibiotics, 2017)
